Source: PubChem BioAssay AID330 (DTP/NCI, 2004)
Several values for one entry are separate records, joined by “and”; a condition that tells them apart may be missing. Identical values can stand only once. Toxic doses and inconclusive results are not listed. Rule for the calls: active = survival T/C of 150% or more; inactive = T/C below 125% in these data.

Tested on: P388 leukemia ip, CD2F1 mice, survival T/C
Assay: NCI In Vivo Anticancer Drug Screen. Data for tumor model P388 Leukemia (intraperitoneal) in CD2F1 (CDF1) mice
Details: endpoint: median survival time, higher = longer survival
How it was run: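 Mice carrying the transplanted tumor received test compound or vehicle. Survival was recorded in each group, and the value is the treated-group measurement divided by that of the vehicle-treated control group.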

[1] = dose: 50.0 mg/kg/injection, schedule: Q01DX009 (ip), vehicle: Klucel (hydroxypropylcellulose) (HPC)
[2] = dose: 12.5 mg/kg/injection, schedule: Q01DX005 (ip), vehicle: Klucel (hydroxypropylcellulose) (HPC)
[3] = dose: 25.0 mg/kg/injection, schedule: Q01DX005 (ip), vehicle: Klucel (hydroxypropylcellulose) (HPC)
[4] = dose: 50.0 mg/kg/injection, schedule: Q01DX005 (ip), vehicle: Klucel (hydroxypropylcellulose) (HPC)
[5] = dose: 50.0 mg/kg/injection, schedule: Q01DX005 (ip), vehicle: saline with Tween-80
[6] = dose: 100.0 mg/kg/injection, schedule: Q01DX005 (ip), vehicle: saline with Tween-80
[7] = dose: 200.0 mg/kg/injection, schedule: Q01DX005 (ip), vehicle: saline with Tween-80
[8] = dose: 100.0 mg/kg/injection, schedule: Q01DX009 (ip), vehicle: Klucel (hydroxypropylcellulose) (HPC)
[9] = dose: 50.0 mg/kg/injection, schedule: Q01DX009 (ip), vehicle: saline with Tween-80
[10] = dose: 100.0 mg/kg/injection, schedule: Q01DX009 (ip), vehicle: saline with Tween-80
[11] = dose: 200.0 mg/kg/injection, schedule: Q01DX009 (ip), vehicle: saline with Tween-80
[12] = dose: 12.5 mg/kg/injection, schedule: Q01DX009 (ip), vehicle: saline with Tween-80
[13] = dose: 25.0 mg/kg/injection, schedule: Q01DX009 (ip), vehicle: saline with Tween-80

Measured: T/C

Nc1ccc(-c2csc(-c3ccccc3)n2)c(Cl)c1
inactive: dose: 12.5 mg/kg/injection, schedule: Q01DX009 (ip), vehicle: Klucel (hydroxypropylcellulose) (HPC) 98 % of control and 99 % of control | dose: 25.0 mg/kg/injection, schedule: Q01DX009 (ip), vehicle: Klucel (hydroxypropylcellulose) (HPC) 103 % of control and 115 % of control | [1] 103 % of control and 113 % of control

O=C1c2ccccc2NC2(C(=O)Nc3ccccc32)N1N1CCOCC1 (stereo not drawn)
inactive: [2] 100 % of control | [3] 100 % of control | [4] 101 % of control

CCOC(=O)c1nc2ccccc2c(=O)n1NC(=S)Nc1ccc(Cl)cc1
inactive: [5] 93 % of control | [6] 93 % of control | [7] 105 % of control

CCC(C)c1ccc(S(=O)(=O)Nc2cc(Cl)c([N+](=O)[O-])cc2O)cc1 (stereo not drawn)
inactive: [1] 104 % of control | [8] 100 % of control | dose: 200.0 mg/kg/injection, schedule: Q01DX009 (ip), vehicle: Klucel (hydroxypropylcellulose) (HPC) 102 % of control

Nc1ccccc1C(=O)NCCCCCCN1CCN(c2cccc(Cl)c2)CC1
inactive: [9] 92 % of control | [10] 90 % of control | [11] 96 % of control

O=C1OC(C2OC(=O)C(=O)C2C2CCCCCCC2=O)C(C2CCCCCCC2=O)C1=O (stereo not drawn)
inactive: dose: 60.0 mg/kg/injection, schedule: Q01DX005 (ip), vehicle: saline with Tween-80 102 % of control | dose: 120.0 mg/kg/injection, schedule: Q01DX005 (ip), vehicle: saline with Tween-80 95 % of control | dose: 240.0 mg/kg/injection, schedule: Q01DX005 (ip), vehicle: saline with Tween-80 100 % of control

CC(C)C(N)C(=O)NN (stereo not drawn)
inactive: dose: 50.0 mg/kg/injection, schedule: Q01DX005 (ip), vehicle: saline 110 % of control | dose: 100.0 mg/kg/injection, schedule: Q01DX005 (ip), vehicle: saline 105 % of control | dose: 200.0 mg/kg/injection, schedule: Q01DX005 (ip), vehicle: saline 110 % of control

CN(CCCc1nc2ccccc2[nH]1)N=O
inactive: dose: 100.0 mg/kg/injection, schedule: Q04DX003 (ip), vehicle: Klucel (hydroxypropylcellulose) (HPC) 100 % of control | dose: 200.0 mg/kg/injection, schedule: Q04DX003 (ip), vehicle: Klucel (hydroxypropylcellulose) (HPC) 101 % of control | dose: 400.0 mg/kg/injection, schedule: Q04DX003 (ip), vehicle: Klucel (hydroxypropylcellulose) (HPC) 100 % of control

O=C(O)CC1SC(c2ccccc2Cl)N(/N=C/c2ccccc2Cl)C1=O (stereo not drawn)
inactive: [12] 102 % of control | [13] 98 % of control | [9] 99 % of control and 87 % of control

O=C(O)CN(CC(=O)O)Cc1cc2c(c(O)c1O)C(=O)c1ccccc1C2=O
inactive: dose: 6.25 mg/kg/injection, schedule: Q01DX009 (ip), vehicle: saline with Tween-80 97 % of control | [12] 101 % of control | [13] 93 % of control | [10] 100 % of control | [11] 100 % of control

COc1ccc2ccc(CCC(=O)O)cc2c1
inactive: dose: 12.5 mg/kg/injection, schedule: Q01DX009 (ip), vehicle: distilled water + Tween-80 100 % of control | dose: 25.0 mg/kg/injection, schedule: Q01DX009 (ip), vehicle: distilled water + Tween-80 100 % of control | dose: 50.0 mg/kg/injection, schedule: Q01DX009 (ip), vehicle: distilled water + Tween-80 94 % of control | dose: 100.0 mg/kg/injection, schedule: Q01DX009 (ip), vehicle: distilled water + Tween-80 99 % of control | dose: 200.0 mg/kg/injection, schedule: Q01DX009 (ip), vehicle: distilled water + Tween-80 108 % of control

CCCCCCCCCCCOCC(=O)O
inactive: [1] 98 % of control | [8] 92 % of control

OC1OC(Cn2c3ccccc3c3ccccc32)C(O)C(O)C1O (stereo not drawn)
inactive: dose: 50.0 mg/kg/injection, schedule: Q01DX001 (ip), vehicle: saline with Tween-80 100 % of control | dose: 100.0 mg/kg/injection, schedule: Q01DX001 (ip), vehicle: saline with Tween-80 107 % of control | dose: 200.0 mg/kg/injection, schedule: Q01DX001 (ip), vehicle: saline with Tween-80 114 % of control

O=C(OCc1ccccc1)C(Cc1c[nH]c2ccccc12)n1cnc2ccccc2c1=O (stereo not drawn)
inactive: [2] 97 % of control | [3] 97 % of control | [4] 96 % of control

O=c1[nH]ncc2c1Sc1cn[nH]c(=O)c1S2
inactive: [5] 97 % of control | [6] 104 % of control | [7] 100 % of control
